48 molecules from ChEMBL document CHEMBL3272267, “Synthesis and antiinflammatory and hypnotic activity of 5-alkoxy-3-(N-substituted carbamoyl)-1-phenylpyrazoles” (J Med Chem, 1977) can be followed below.

Data set [1] concerns Rattus norvegicus. Kind of data set: Antiinflammatory activity in Wistar rat assessed as inhibition of carrageenan-induced hind paw edema at 100 mg/kg, po administered as gum arabic suspension 30 mins prior to carrageenin injection measured 3 hrs post-carrageenin injection. The format is functional.
In data set [2] the test system is Mus musculus. Kind of data set: Hypnotic activity in ip dosed ddN mouse assessed as loss of righting reflex administered as gum arabic suspension measured within 60 mins. The format is functional.
Data set [3] can be described thus: Acute toxicity in po dosed mouse. The data set is classed as organism-based. The following applies: in vivo.

As to `CCCCOc1cc(C(=O)N(CC)CC)nn1-c1ccccc1`, the inhibition in vivo at 100 mg/kg in data set [1] worked out at 44.1%.
Same read-out and setting: under `CCCCOc1cc(C(=O)N2CCN(CCO)CC2)nn1-c1ccccc1` stands 41.3%; under `CCCCC1C(=O)N(c2ccccc2)N(c2ccccc2)C1=O` [PHENYLBUTAZONE], 54.5%.
For the molecule `CCCCOc1cc(C(=O)NCCN(CC)CC)nn1-c1ccccc1`, the inhibition in vivo at 100 mg/kg in data set [1] stood at 23.6%.
For `CCCCOc1cc(C(=O)N2CCOCC2)nn1-c1ccccc1`, in data set [1], the inhibition in vivo at 100 mg/kg is 32.9%.
Regarding `CCCOc1cc(C(=O)N2CCOCC2)nn1-c1ccccc1`, the inhibition in vivo at 100 mg/kg in data set [1] worked out at 23.5%.
Consider `CCCCOc1cc(C(N)=O)nn1-c1ccccc1`, for which, in data set [2], the HD50 worked out at 94 mg/kg. For the same molecule, the inhibition in vivo at 100 mg/kg in data set [1] came to 26.5%. In data set [3], the 50% lethal dose (LD50) is 360 mg/kg.
In the case of `COc1cc(C(=O)Nc2ccccc2C(=O)O)nn1-c1ccccc1`, in data set [1], the inhibition in vivo at 100 mg/kg came to 24.1%.
Consider `CCOc1cc(C(=O)N2CCOCC2)nn1-c1ccccc1`, for which the inhibition in vivo at 100 mg/kg in data set [1] amounted to 35.4%.
In the case of `CCCCOc1cc(C(=O)Nc2ccccc2C(=O)O)nn1-c1ccccc1`, the inhibition in vivo at 100 mg/kg in data set [1] amounted to 0%.
For `CCCCNC(=O)c1cc(OC)n(-c2ccccc2)n1`, the inhibition in vivo at 100 mg/kg in data set [1] worked out at 20.6%.
As to `COc1cc(C(=O)NC(C)C)nn1-c1ccccc1`, the inhibition in vivo at 100 mg/kg in data set [1] came to 24.8%.
As to `CCCCOc1cc(C(=O)N2CCCCC2)nn1-c1ccccc1`, the inhibition in vivo at 100 mg/kg in data set [1] was determined as 15.6%.
As to `CCCCOc1cc(C(=O)N(C)CCN(C)C)nn1-c1ccccc1`, the inhibition in vivo at 100 mg/kg in data set [1] amounted to 28.2%.
Regarding `COc1cc(C(=O)N2CCN(C)CC2)nn1-c1ccccc1`, in data set [1], the inhibition in vivo at 100 mg/kg was 56.8%.
Consider `COc1cc(C(=O)N(C)C)nn1-c1ccccc1`, for which the HD50 in data set [2] is 90 mg/kg. For the same molecule, the inhibition in vivo at 100 mg/kg in data set [1] came out at 47.5%. The molecule further returned a median lethal dose (LD50) in data set [3] of 385 mg/kg.
Regarding `CCCCOc1cc(C(=O)NCCC)nn1-c1ccccc1`, the HD50 in data set [2] is 39 mg/kg. Besides, in data set [1], the inhibition in vivo at 100 mg/kg was 51.2%. In data set [3], this molecule showed a median lethal dose (LD50) of 650 mg/kg.
Consider `CCCCOc1cc(C(=O)N2CCN(CCOC(=O)c3ccccc3)CC2)nn1-c1ccccc1`, for which, in data set [1], the inhibition in vivo at 100 mg/kg was 5.9%.
`CCCCOc1cc(C(=O)NCC)nn1-c1ccccc1`: in data set [2], the HD50 stood at 44 mg/kg. In addition, the inhibition in vivo at 100 mg/kg in data set [1] is 0%. The molecule further registered a median lethal dose (LD50) in data set [3] of 400 mg/kg.
For `CCCCNC(=O)c1cc(OCCCC)n(-c2ccccc2)n1`, in data set [2], the HD50 is 70 mg/kg. The inhibition in vivo at 100 mg/kg in data set [1] worked out at 43.3%. The 50% lethal dose (LD50) in data set [3] was 370 mg/kg.
Regarding `COc1cc(C(N)=O)nn1-c1ccccc1`, in data set [1], the inhibition in vivo at 100 mg/kg is 34.3%.
Still for that read-out and setting: the value for `CCCCOc1cc(C(=O)N(C)CCN(CC)CC)nn1-c1ccccc1` was 29.5%; that for `COc1cc(C(=O)N(C)c2ccc(C)cc2)nn1-c1ccccc1` was 22.3%.
For the molecule `CC(C)Oc1cc(C(=O)N(C)C)nn1-c1ccccc1`, the HD50 in data set [2] amounted to 49 mg/kg. Besides, the inhibition in vivo at 100 mg/kg in data set [1] was determined as 43.9%. Also, the median lethal dose (LD50) in data set [3] stood at 525 mg/kg.
In the case of `CCCCOc1cc(C(=O)N2CCN(CCOC(=O)CC)CC2)nn1-c1ccccc1`, the inhibition in vivo at 100 mg/kg in data set [1] is 0%.
As for `CC(C)CCOc1cc(C(=O)N(C)C)nn1-c1ccccc1`, the HD50 in data set [2] stood at 47 mg/kg. Besides, the inhibition in vivo at 100 mg/kg in data set [1] was determined as 25.3%. This molecule also gave an LD50 in data set [3] of 350 mg/kg.
In the case of `CCCCOc1cc(C(=O)NCCO)nn1-c1ccccc1`, in data set [1], the inhibition in vivo at 100 mg/kg was determined as 61.2%.
As to `COc1cc(C(=O)N2CCN(CCO)CC2)nn1-c1ccccc1`, the inhibition in vivo at 100 mg/kg in data set [1] is 10.3%.
Turning to `CCCCOc1cc(C(=O)N2CCN(C)CC2)nn1-c1ccccc1`, the inhibition in vivo at 100 mg/kg in data set [1] came out at 32.3%.
In the case of `CCCCOc1cc(C(=O)N(C)C)nn1-c1ccccc1`, the HD50 in data set [2] turned out to be 33 mg/kg. The inhibition in vivo at 100 mg/kg in data set [1] was 18.7%. Moreover, the median lethal dose (LD50) in data set [3] stood at 460 mg/kg.
Consider `CN1C(=O)NC(=O)C(C)(C2=CCCCC2)C1=O` (stereo not drawn) [HEXOBARBITAL], for which the HD50 in data set [2] stood at 91 mg/kg. In addition, the median lethal dose (LD50) in data set [3] was 745 mg/kg.
Consider `COc1cc(C(=O)N2CCCCC2)nn1-c1ccccc1`, for which the inhibition in vivo at 100 mg/kg in data set [1] is 28.2%.
On to `CCCCCOc1cc(C(=O)N(C)C)nn1-c1ccccc1`, for which the HD50 in data set [2] stood at 63 mg/kg. The inhibition in vivo at 100 mg/kg in data set [1] stood at 20%. Also, the LD50 in data set [3] worked out at 420 mg/kg.
For the molecule `COc1cc(C(=O)N2CCOCC2)nn1-c1ccccc1`, the inhibition in vivo at 100 mg/kg in data set [1] is 73.8%.
As to `CCCCOc1cc(C(=O)N2CCN(C(=O)c3cc(OCCCC)n(-c4ccccc4)n3)CC2)nn1-c1ccccc1`, the inhibition in vivo at 100 mg/kg in data set [1] was 0%.
Take `COc1cc(C(=O)N2CCCC2)nn1-c1ccccc1`: the inhibition in vivo at 100 mg/kg in data set [1] stood at 29.2%.
As to `C=CCNC(=O)c1cc(OCCCC)n(-c2ccccc2)n1`, in data set [1], the inhibition in vivo at 100 mg/kg was determined as 4.4%.
Take `COc1cc(C(=O)Nc2cccc(C(F)(F)F)c2)nn1-c1ccccc1`: the inhibition in vivo at 100 mg/kg in data set [1] stood at 20.9%.
Consider `CCOc1cc(C(=O)N(C)C)nn1-c1ccccc1`, for which, in data set [2], the HD50 is 26 mg/kg. The inhibition in vivo at 100 mg/kg in data set [1] is 65.8%. Moreover, the LD50 in data set [3] was 330 mg/kg.
With `CNC(=O)c1cc(OC)n(-c2ccccc2)n1`, in data set [1], the inhibition in vivo at 100 mg/kg was found to be 57.9%.
As to `CCCCOc1cc(C(=O)NC)nn1-c1ccccc1`, the HD50 in data set [2] is 48 mg/kg. In addition, in data set [1], the inhibition in vivo at 100 mg/kg was 65%. The molecule also showed an LD50 in data set [3] of 325 mg/kg.
Consider `CCN(CC)CCNC(=O)c1cc(OC)n(-c2ccccc2)n1`, for which the inhibition in vivo at 100 mg/kg in data set [1] turned out to be 54.1%.
Take `CCCOc1cc(C(=O)N(C)C)nn1-c1ccccc1`: in data set [2], the HD50 amounted to 27 mg/kg. Moreover, the inhibition in vivo at 100 mg/kg in data set [1] turned out to be 26.2%. Besides, the 50% lethal dose (LD50) in data set [3] was determined as 320 mg/kg.
Take `CCCCOc1cc(C(=O)N2CCN(CCOC(C)=O)CC2)nn1-c1ccccc1`: the inhibition in vivo at 100 mg/kg in data set [1] worked out at 43.9%.
On to `Cc1c(N(C)C)c(=O)n(-c2ccccc2)n1C` [AMINOPYRINE], for which, in data set [1], the inhibition in vivo at 100 mg/kg was found to be 66%.
For the molecule `CCCCOc1cc(C(=O)NC(C)C)nn1-c1ccccc1`, in data set [1], the inhibition in vivo at 100 mg/kg stood at 15.8%.
For `CCCCOc1cc(C(=O)NCCCN(C)C)nn1-c1ccccc1`, the inhibition in vivo at 100 mg/kg in data set [1] was found to be 29.8%.
As to `CCCCOc1cc(C(=O)N2CCCC2)nn1-c1ccccc1`, in data set [1], the inhibition in vivo at 100 mg/kg came out at 17.6%.
